Results on 3 molecules are retold here after US20220056018A1, “SREBP INHIBITORS COMPRISING A THIOPHENE CENTRAL RING” (Capulus Therapeutics, LLC, priority 2019, published 2022).

The subject of one series is SKOV3. Put plainly: Cancer cell growth inhibition. As to conditions: Homo sapiens, SK-OV-3; SKOV3 (ovary), 72 hr treatment. Format: cell-based. How it is done: (§1) The ability of select compounds to inhibit cell growth in various cancer cell lines are evaluated. […] The cell lines shown in Table 2 have reduced growth by at least 50% at 10 uM or lower over 72 hr treatment in growth media. The cell lines shown in Table 3 have reduced growth by at least 50% with an IC50 greater than 10 uM.
(§2) Six 10-fold compound dilutions are prepared in DMSO (e.g. 10 mM, 1 mM, 100 uM, 10 uM, 1 uM, and 0.1 uM). Single data points are acquired for each concentration. The final concentration of DMSO is 0.1%. The duration of the treatment is 72 hr. Growth inhibition is measured using Sulforhodamine B in a protein staining assay. Activity of the agents is determined by evaluation the following parameters: IC50, GI50, IC10, TGI, LC50, IC90, and GI90 (where these values can be calculated).

In a further series the test system is SKHEP1. Put plainly: Cancer cell growth inhibition. In kind it is cell-based. To be noted: Homo sapiens, SK-HEP1; SKHEP1 (liver), 72 hr treatment. How it is done:
as §1, §2

The next series deals with COLO205. Description: Cancer cell growth inhibition. In kind it is cell-based. As to conditions: Homo sapiens, COLO 205; COLO205 (colon), 72 hr treatment. How it is done:
as §1, §2

A further series deals with SW620. Description: Cancer cell growth inhibition. In kind it is cell-based. As to conditions: Homo sapiens, SW-620; SW620 (colon), 72 hr treatment. How it is done: as §1, §2
A further series has as its system SKNAS. Description: Cancer cell growth inhibition. In kind it is cell-based. As to conditions: Homo sapiens, SK-N-AS; SKNAS (brain), 72 hr treatment. How it is done:
as §1, §2

The subject of the next series is U87MG. Put plainly: Cancer cell growth inhibition. Format: cell-based. To be noted: Homo sapiens, U-87 MG; U87MG (brain), 72 hr treatment. How it is done:
as §1, §2

Another series concerns RD. Description: Cancer cell growth inhibition. Format: cell-based. As to conditions: Homo sapiens; RD (muscle), 72 hr treatment. How it is done:
as §1, §2

The subject of the next series is MDAMB468. Put plainly: Cancer cell growth inhibition. As to conditions: Homo sapiens, MDA-MB-468; MDAMB468 (breast), 72 hr treatment. In kind it is cell-based. How it is done: as §1, §2
A further series has as its system HELA. Put plainly: Cancer cell growth inhibition. Format: cell-based. As to conditions: Homo sapiens; HELA (endometrial), 72 hr treatment. How it is done:
as §1, §2

The next series deals with EJ28. Put plainly: Cancer cell growth inhibition. Format: cell-based. As to conditions: Homo sapiens, EJ-28; EJ28 (bladder), 72 hr treatment. How it is done:
as §1, §2

The test system of another series is NCIH460. Description: Cancer cell growth inhibition. As to conditions: Homo sapiens, NCI-H460; NCIH460 (lung), 72 hr treatment. Format: cell-based. How it is done:
as §1, §2

The next series concerns SF268. Put plainly: Cancer cell growth inhibition. In kind it is cell-based. To be noted: Homo sapiens, SF-268; SF268 (brain), 72 hr treatment. How it is done: as §1, §2
The test system of a further series is PANC1. Put plainly: Cancer cell growth inhibition. Format: cell-based. As to conditions: Homo sapiens, PANC-1; PANC1 (pancreas), 72 hr treatment. How it is done: as §1, §2
A further series deals with MT3. Put plainly: Cancer cell growth inhibition. Format: cell-based. To be noted: MT-3; MT3 (breast), 72 hr treatment. How it is done: as §1, §2
The subject of another series is HEPG2. Put plainly: Cancer cell growth inhibition. In kind it is cell-based. To be noted: Homo sapiens; HEPG2 (liver), 72 hr treatment. How it is done:
as §1, §2

For the next series, the system named is MV4-11. Description: Cancer cell growth inhibition. In kind it is cell-based. To be noted: Homo sapiens; MV4-11 (hematological), 72 hr treatment. How it is done:
as §1, §2

In another series the test system is JEG3. Description: Cancer cell growth inhibition. In kind it is cell-based. As to conditions: Homo sapiens, JEG-3; JEG3 (placenta), 72 hr treatment. How it is done: as §1, §2
The next series deals with SNB75. Description: Cancer cell growth inhibition. Format: cell-based. To be noted: Homo sapiens, SNB-75; SNB75 (brain), 72 hr treatment. How it is done:
as §1, §2

A further series relates to PC3. Description: Cancer cell growth inhibition. Format: cell-based. As to conditions: Homo sapiens, PC-3; PC3 (prostate), 72 hr treatment. How it is done: as §1, §2
In another series the test system is EFO21. Put plainly: Cancer cell growth inhibition. In kind it is cell-based. To be noted: Homo sapiens, EFO-21; EFO21 (ovary), 72 hr treatment. How it is done: as §1, §2
The subject of the next series is IGROV1. Put plainly: Cancer cell growth inhibition. As to conditions: Homo sapiens, IGROV-1; IGROV1 (ovary), 72 hr treatment. Format: cell-based. How it is done: as §1, §2
A further series relates to GRANTA-519. Description: Cancer cell growth inhibition. In kind it is cell-based. To be noted: Homo sapiens; GRANTA-519 (hematological), 72 hr treatment. How it is done:
as §1, §2

In a further series the test system is PLCPRF5. Description: Cancer cell growth inhibition. To be noted: Homo sapiens, PLC-PRF-5; PLCPRF5 (liver), 72 hr treatment. Format: cell-based. How it is done: as §1, §2
The nature of series [1]: Stability in human liver microsomes. Format: in vitro ADME. As to conditions: 37° C., NADPH. The gist of the method:
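Compound from a 100 μM working solution was preincubated 10 min at 37 °C with human liver microsomes (added at 3.33 mg/mL) in 100 mM potassium phosphate. Incubation then ran 60 min at 37 °C with NADPH (2.85 mM cofactor solution), alongside a no-cofactor 60-min control and a 0-min sample. Parent compound was quantified by LC-MS/MS after acetonitrile quench for half-life.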
A general note: Microsomes from liver hold many membrane-bound enzymes, among them those of drug oxidation.

In the case of `CC(C)(CO)c1cc(-c2csc(-c3ccc(NS(C)(=O)=O)cc3Cl)c2)ccn1` [Compound I-8909, N-(3-chloro-4-(4-(2-(1-hydroxy-2-methylpropan-2-yl)pyridin-4-yl)thiophen-2-yl)phenyl)methanesulfonamide], the IC50 (usually the point on the concentration scale where inhibition reaches its midpoint) is over 10 µM in the series on SKOV3; under 10 µM with SKHEP1; under 10 µM in the series with COLO205; over 10 µM in the series on SW620; over 10 µM in the series on SKNAS; over 10 µM in the series with U87MG. In addition, the concentration for half-maximal inhibition (IC50) in the series on RD was over 10 µM; in the series with MDAMB468, under 10 µM; with HELA, under 10 µM; in the series on EJ28 it was over 10 µM; with NCIH460 it was under 10 µM; with SF268, under 10 µM. In addition, the 50% inhibitory concentration (IC50) was under 10 µM with PANC1; under 10 µM in the series with MT3; under 10 µM in the series with HEPG2; under 10 µM in the series on MV4-11; under 10 µM in the series with JEG3; over 10 µM with SNB75. In addition, the half-maximal inhibitory concentration (IC50) was over 10 µM in the series on PC3; under 10 µM with EFO21; over 10 µM in the series on IGROV1; over 10 µM in the series on GRANTA-519; under 10 µM in the series with PLCPRF5. The “percent of compound remaining after 60 min in human liver microsomes” value (“percent of compound remaining” below) in [1] is “++ (30.1-60 = ++)”.
As for `CC(C)(O)Cc1cc(-c2csc(-c3ccc(NS(C)(=O)=O)cc3Cl)c2)ccn1` [Compound I-9004, N-(3-chloro-4-(4-(2-(2-hydroxy-2-methylpropyl)pyridin-4-yl)thiophen-2-yl)phenyl)methanesulfonamide], the IC50 is over 10 µM in the series on SKOV3; under 10 µM in the series on SKHEP1; under 10 µM in the series with COLO205; over 10 µM in the series on SW620; over 10 µM with SKNAS; over 10 µM with U87MG. For the same molecule, the IC50 in the series with RD was over 10 µM; in the series on MDAMB468, under 10 µM; in the series with HELA, under 10 µM; with EJ28 it was over 10 µM; in the series with NCIH460 it was under 10 µM; in the series with SF268, under 10 µM. The IC50 in the series on PANC1 is under 10 µM; in the series with MT3, under 10 µM; with HEPG2, under 10 µM; in the series with MV4-11, under 10 µM; in the series on JEG3, under 10 µM; with SNB75, over 10 µM. The half-inhibitory concentration (IC50) was over 10 µM with PC3; under 10 µM with EFO21; over 10 µM with IGROV1; over 10 µM with GRANTA-519; under 10 µM in the series with PLCPRF5. Further, the “percent of compound remaining” value in series [1] was “+++ (>60.1 = +++)”.
On to `CS(=O)(=O)Nc1ccc(-c2cc(-c3ccnc4c3OCCO4)cs2)c(Cl)c1` [Compound I-9017, N-(3-chloro-4-(4-(2,3-dihydro-[1,4]dioxino[2,3-b]pyridin-8-yl)thiophen-2-yl)phenyl)methanesulfonamide], for which the concentration for half-maximal inhibition (IC50) in the series on SKOV3 is under 10 µM; in the series with SKHEP1 it was under 10 µM; with COLO205, under 10 µM; in the series on SW620 it was under 10 µM; in the series on SKNAS, over 10 µM; in the series with U87MG, under 10 µM. Also, the 50% inhibitory concentration (IC50) was over 10 µM in the series on RD; under 10 µM in the series on MDAMB468; under 10 µM in the series with HELA; over 10 µM with EJ28; under 10 µM in the series with NCIH460; under 10 µM in the series with SF268. Besides, the half-maximal inhibitory concentration (IC50) with PANC1 was under 10 µM; in the series with MT3, under 10 µM; with HEPG2 it was under 10 µM; in the series with MV4-11, under 10 µM; in the series on JEG3, under 10 µM; in the series with SNB75, over 10 µM. The IC50 was over 10 µM in the series with PC3; under 10 µM in the series with EFO21; under 10 µM with IGROV1; under 10 µM in the series on GRANTA-519; under 10 µM with PLCPRF5. In addition, the “percent of compound remaining” value in [1] is on record as “+++ (>60.1 = +++)”.
